Test results from article PMC5847048 (Psychopharmacology, 2017).

Tests used:
[1] = system: middle-aged mice (14–15 months old); assay: Contextual serial discrimination (CSD) task; format: in vivo, mouse; conditions: for Strength of contextual memory (SCM) score, first discrimination D1: Experiment 1 study A, middle-aged mice, vehicle − 21.66%; for SCM score (LSMeans ± SE LSMeans): Experiment 2, 9 days, D1
Description: Treatments were administered per os daily for nine consecutive days for studies involving the CSD and SA tasks. The 8th and the 9th oral administrations were given 60 min before acquisition and test phases in the CSD task, or before the training and the test sessions in the SA task.
The studies were carried out on mice according to the procedure described in full by Celerier et al. ([2004]) and Tronche et al. ([2010]) (Fig.1). Briefly, the mouse learns two consecutive spatial discriminations (D1 and D2) in a four hole-board apparatus (45 × 45 × 30 cm) enclosed with gray Plexiglas walls. The floor of the hole-board was interchangeable (white and rough versus black and smooth). On the floor, four holes opening on a food cup (3-cm diameter × 2.5-cm depth) were located 6 cm away from the sidewalls. Photocells located into the holes allowed an automatic recording of the number of head-dips in each hole.
Fig. 1 a Contextual serial discrimination: at the acquisition phase, mice performed two consecutive spatial discrimination sessions varying by the color and texture of the floor, i.e., D1, discrimination 1, and D2, discrimination 2. For each discrimination session, only one out of the four holes of the apparatus was baited (hashed circles). […] One hour prior to acquisition and test phases, mice received a per os administration of the compounds or vehicle solution in a chamber placed in a room (room C) different from the one in which the behavioral experiments were conducted (room A). Subsequently, mice were submitted to the test phase in which they were repositioned on the floor of the first discrimination without any food pellet in the apparatus. b Two types of responses were calculated: (i) correct responses corresponding to head-dips into the hole baited at the acquisition of the first discrimination (D1), on the same floor context; (ii) interference responses corresponding to head-dips into the hole baited at the other (second) discrimination (D2). Both parameters allow calculation of the SCM score
Mice were partially food-deprived for 1 week prior to experimentation and were maintained on a 12 ± 2% loss of their body weight throughout behavioral testing to increase motivation for food reward. During the food deprivation phase, mice were handled daily to familiarize them with the experimenter.
During the acquisition session, mice were first placed at the center of the board in a plastic tube for 15 s and then learned two successive spatial discriminations (D1 and D2) for 6 min each and were each separated by a 2-min interval. Between two sessions, each mouse was placed in its home cage in an animal housing room. For D1, ten 20-mg pellets were available only in one of the four holes in the board. For D2, ten 20-mg pellets were located in the opposite symmetrical hole. The environmental spatial cues remained at the same place for D1 and D2. Within each group, the floors used for the first and second discrimination (D1 and D2) were counterbalanced at the acquisition phase from one mouse to the other. A minimal amount of eight pellets should be eaten per mouse at either D1 or D2 during the acquisition phase.
During memory testing, D1 and D2 discriminations were performed in independent groups of mice, being replaced either on the floor of D1 or of D2. The food-deprived mice were replaced either on the floor of D1 or on the floor of D2. In each case, mice were allowed to explore the apparatus freely and performance was assessed by measuring the exploration for each hole for 6 min without any pellets in the apparatus. During the procedure, photocells allowed measurement of the number of head dips in each hole. Different parameters were further calculated: % of correct responses (head-dips into the hole previously baited on the same floor context), % of interfering responses (head-dips into the hole previously baited on the other floor context), and % of errors (head-dips into the two holes never previously baited).

aged rats = system: aged rats; set-up: method as in Calabrese et al. [2017]; conditions: dorsal hippocampus and prefrontal cortex of aged rats; ref Calabrese et al. [2017]; cited from earlier work
rats = system: rats; set-up: method as in Bretin et al. [2017]; conditions: acute administration, ref Bretin et al. [2017]; cited from earlier work
normal adult mice = system: normal adult mice; set-up: method as in Bretin et al. [2017]; conditions: acute administration, ref Bretin et al. [2017]; cited from earlier work
mice = assay: Primary observation (Irwin) test; conditions: S 47445 alone, 3 to 100 mg/kg p.o.; mice
Description: Male Rj: C57BL/6J mice (Elevage Janvier, 53940 Le Genest-Saint-Isle, France), 23–27 g body weight range, were stabilized for at least 5 days after delivery in macrolon cages in groups of 10 (housing period) (25 × 19 × 13 cm) and then of 4 (starting the day before the test and during the test) in macrolon cages (25 × 19 × 13 or 32 × 13 × 14 cm) on wood litter with free access to food and water.
Between one and three treated groups were compared with the same control at any one time. […] In order to keep the same conditions, all the mice receiving a single treatment also received another administration with vehicle.
Behavioral modifications, physiological and neurotoxicity symptoms, and rectal temperature were recorded according to a standardized observation grid derived from that of Irwin. The grid contains the following items: death*, convulsions*, tremor*, Straub tail*, altered activity, excitation, jumping*, abnormal gait* (rolling, tip-toe), motor incoordination*, altered muscle tone, loss of grasping, akinesia, catalepsy, loss of traction, writhing*, piloerection*, stereotypies* (sniffing, chewing, head movements), head-twitches*, scratching*, altered respiration*, aggression*, altered fear, altered reactivity to touch, ptosis, exophthalmia, loss of righting reflex, loss of corneal reflex, analgesia, defecation/diarrhea, salivation, lacrimation, and rectal temperature (hypothermia/hyperthermia).

Question: What does the source list for O=C1c2cc3nnn(CCc4cccc(F)c4)c(=O)c3cc2OCN1C1CC1 [S 47445]?
Answer: Total number of explorations and % exploration of the baited hole, acquisition phase ([1]; Experiment 1 (study A and B), compounds alone, p> 0.10 in all analyses): No significant between-groups difference; Memory performance in the second discrimination (D2) ([1]; Experiment 1, S 47445 at all doses, donepezil at the active doses, versus middle-aged vehicle, data not shown): did not alter memory performance; Total number of head-dips, test phase ([1]; Experiment 1, versus vehicles (p > 0.10 in all comparisons), data not shown): no significant effect; Strength of contextual memory (SCM) score, first discrimination D1 ([1]; S 47445 0.1 mg/kg p.o. daily 9 days): 6.56%; Strength of contextual memory (SCM) score, first discrimination D1 ([1]; S 47445 0.3 mg/kg p.o. daily 9 days): 10.57%; SCM score (LSMeans ± SE LSMeans) ([1]; S 47445 0.1 mg/kg p.o. alone): 5.1515 ± 7.7919%; SCM score (LSMeans ± SE LSMeans) ([1]; S 47445 0.3 mg/kg p.o. alone): 11.7033 ± 7.7919%; Post hoc analysis of S 47445 effect on SCM score for all donepezil levels (Dunnett, versus vehicle group) ([1]; S 47445 0.03 mg/kg, all levels of donepezil pooled): + (+p ≤ 0.050); SCM score of the second discrimination (D2), dose effect at pooled levels of the other drug ([1]; Supplemental data 2, S 47445 0.03–0.3 mg/kg p.o. (p=0.951), Donepezil 0.03 and 0.1 mg/kg (p=0.074)): no significant effect; Neurotrophic effects (aged rats): displayed neurotrophic effects; Episodic-like memory in object recognition (rats): dose-related improvement; Working-like memory in spontaneous alternation task (normal adult mice): dose-related improvement; Observable effects in the Irwin test (mice): devoid of any observable effect
